Assay results taken from patent US20250222146A1, “Radiopharmaceuticals Targeting Somatostatin Receptor 2 and Uses Thereof” (RayzeBio, Inc., priority 2023, published 2025).
Numbered stars: 1 amine (or outer) side, 2 acyl side, 3 side chain; on linkers, the order of the positions; unused ones are H or OH. Square brackets hold non-standard residues; d marks the D form. Peptide text beside a SMILES is read from it. * marks the point of attachment. DOTA(Lu)NH(CH2)6NHCOCH2 = O=C(CN1CCN2CCN3CCN(CC1)CC(=O)[O][Lu]([O]C(=O)C2)[O]C(=O)C3)NCCCCCCNC(=O)C*; X6 = O=C(CN1CCN2CCN3CCN(CC1)CC(=O)[O][Lu]([O]C(=O)C2)[O]C(=O)C3)NCCOCCOCCOCCNC(=O)C*; Ala(piperidin-4-yl) = O=C([C@H](CC1CCN([*:3])CC1)N[*:1])[*:2]; dTrp(βS-Me) = C[C@@H](c1c[nH]c2ccccc12)[C@@H](N)C(=O)O; Gly(piperidin-4-yl) = N[C@H](C(=O)O)C1CCNCC1; X20 = CN(C[C@H](N[*:1])C(=O)[*:2])c1ccccc1; dNMeW = CN[C@H](Cc1c[nH]c2ccccc12)C(=O)O; Dip = N[C@H](C(=O)O)C(c1ccccc1)c1ccccc1; X25 = O=C([C@H](CC1CNC1)N[*:1])[*:2]; Gly(cPent) = N[C@H](C(=O)O)C1CCCC1; 4Pal = N[C@@H](Cc1ccncc1)C(=O)O; Cha = N[C@@H](CC1CCCCC1)C(=O)O; Gly(cPr) = N[C@H](C(=O)O)C1CC1; NMehCys = CN[C@@H](CCS)C(=O)O; Cba = N[C@@H](CC1CCC1)C(=O)O; NMeK = CN[C@@H](CCCCN)C(=O)O; Phg = N[C@H](C(=O)O)c1ccccc1

Biological target: SSTR2 (Homo sapiens, UniProt P30874)
Sequence (P30874 whole entry): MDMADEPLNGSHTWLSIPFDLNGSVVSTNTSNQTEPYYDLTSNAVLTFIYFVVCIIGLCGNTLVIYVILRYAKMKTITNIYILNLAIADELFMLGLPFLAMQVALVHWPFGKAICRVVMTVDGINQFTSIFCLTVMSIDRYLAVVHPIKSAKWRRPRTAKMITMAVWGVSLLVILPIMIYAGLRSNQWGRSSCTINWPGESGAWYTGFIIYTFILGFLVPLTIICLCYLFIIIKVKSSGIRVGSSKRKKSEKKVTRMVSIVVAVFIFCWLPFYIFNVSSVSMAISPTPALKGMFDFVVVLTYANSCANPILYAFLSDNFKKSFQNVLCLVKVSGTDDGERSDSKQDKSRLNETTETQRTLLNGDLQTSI
Assay: SSTR binding affinity by radioligand binding competition assay ([125I]-Tyr11-Somatostatin, membrane extracts)
Details: radioligand competition, [125I]-Tyr11-Somatostatin 0.1 nM, membrane extracts; Ki from IC50 by Cheng Prusoff; read-out: SSTR2 Ki

Row | Structure (SMILES) | Ki
1 | CC(C)[C@@H]1NC(=O)[C@H](CCCCN)NC(=O)[C@@H]([C@@H](C)c2c[nH]c3ccccc23)NC(=O)[C@H](Cc2ccc(O)cc2)NC(=O)[C@H](CCSCC(=O)NCCCCCCNC(=O)CN2CCN3CCN4CCN(CC2)CC(=O)[O][Lu]([O]C(=O)C3)[O]C(=O)C4)N(C)C(=O)[C@H](Cc2ccccc2)NC1=O [RB-0004609] (cyclo(F[NMehCys](DOTA(Lu)NH(CH2)6NHCOCH2)Y[dTrp(βS-Me)]KV)) | < 1 nM
2 | CC(C)[C@@H]1NC(=O)[C@H](CCCCN)N(C)C(=O)[C@@H](Cc2c[nH]c3ccccc23)N(C)C(=O)[C@H](Cc2ccc(O)cc2)NC(=O)[C@H](CCSCC(=O)NCCCCCCNC(=O)CN2CCN3CCN4CCN(CC2)CC(=O)[O][Lu]([O]C(=O)C3)[O]C(=O)C4)N(C)C(=O)[C@H](Cc2ccccc2)NC1=O [RB-0004611] (cyclo(F[NMehCys](DOTA(Lu)NH(CH2)6NHCOCH2)Y[dNMeW][NMeK]V)) | < 1 nM
3 | CC(C)[C@@H]1NC(=O)[C@H](CCCCN)NC(=O)[C@@H](Cc2c[nH]c3ccccc23)NC(=O)[C@H](C(c2ccccc2)c2ccccc2)NC(=O)[C@H](CCSCC(=O)NCCCCCCNC(=O)CN2CCN3CCN4CCN(CC2)CC(=O)[O][Lu]([O]C(=O)C3)[O]C(=O)C4)N(C)C(=O)[C@H](Cc2ccccc2)NC1=O [RB-0004613] (cyclo([Dip][dW]KVF[NMehCys](DOTA(Lu)NH(CH2)6NHCOCH2))) | < 1 nM
4 | CC(C)[C@@H]1NC(=O)[C@H](CCCCN)NC(=O)[C@@H](Cc2c[nH]c3ccccc23)NC(=O)[C@H](Cc2ccc(O)cc2)NC(=O)[C@H](CCSCC(=O)NCCCCCCNC(=O)CN2CCN3CCN4CCN(CC2)CC(=O)[O][Lu]([O]C(=O)C3)[O]C(=O)C4)N(C)C(=O)[C@H](CN(C)c2ccccc2)NC1=O [RB-0004615] (cyclo(KV[X20][NMehCys](DOTA(Lu)NH(CH2)6NHCOCH2)Y[dW])) | < 1 nM
5 | CC(C)[C@@H]1NC(=O)[C@H](CCCCN)NC(=O)[C@@H](Cc2c[nH]c3ccccc23)NC(=O)[C@H](Cc2ccc(O)cc2)NC(=O)[C@H](CCSCC(=O)NCCCCCCNC(=O)CN2CCN3CCN4CCN(CC2)CC(=O)[O][Lu]([O]C(=O)C3)[O]C(=O)C4)N(C)C(=O)[C@H](CC2CCCCC2)NC1=O [RB-0004617] (cyclo([Cha][NMehCys](DOTA(Lu)NH(CH2)6NHCOCH2)Y[dW]KV)) | 1 to 3.33 nM
6 | CO[C@H](C)[C@@H]1NC(=O)[C@H](CCCCN)NC(=O)[C@@H](Cc2c[nH]c3ccccc23)NC(=O)[C@H](Cc2ccc(O)cc2)NC(=O)[C@H](CCSCC(=O)NCCCCCCNC(=O)CN2CCN3CCN4CCN(CC2)CC(=O)[O][Lu]([O]C(=O)C3)[O]C(=O)C4)N(C)C(=O)[C@H](Cc2ccccc2)NC1=O [RB-0004619] | < 1 nM
7 | CN1C(=O)[C@H](Cc2ccccc2)NC(=O)[C@H](CC2CCC2)NC(=O)[C@H](CCCCN)NC(=O)[C@@H](Cc2c[nH]c3ccccc23)NC(=O)[C@H](Cc2ccc(O)cc2)NC(=O)[C@@H]1CCSCC(=O)NCCCCCCNC(=O)CN1CCN2CCN3CCN(CC1)CC(=O)[O][Lu]([O]C(=O)C2)[O]C(=O)C3 [RB-0004621] (cyclo([Cba]F[NMehCys](DOTA(Lu)NH(CH2)6NHCOCH2)Y[dW]K)) | < 1 nM
8 | CN1C(=O)[C@H](Cc2ccccc2)NC(=O)[C@H](C2CCCC2)NC(=O)[C@H](CCCCN)NC(=O)[C@@H](Cc2c[nH]c3ccccc23)NC(=O)[C@H](Cc2ccc(O)cc2)NC(=O)[C@@H]1CCSCC(=O)NCCCCCCNC(=O)CN1CCN2CCN3CCN(CC1)CC(=O)[O][Lu]([O]C(=O)C2)[O]C(=O)C3 [RB-0004623] (cyclo(F[NMehCys](DOTA(Lu)NH(CH2)6NHCOCH2)Y[dW]K[Gly(cPent)])) | < 1 nM
9 | C[C@@H](O)[C@@H]1NC(=O)[C@H](CCCCN)NC(=O)[C@@H](Cc2c[nH]c3ccccc23)NC(=O)[C@H](Cc2ccc(O)cc2)NC(=O)[C@H](CCSCC(=O)NCCCCCCNC(=O)CN2CCN3CCN4CCN(CC2)CC(=O)[O][Lu]([O]C(=O)C3)[O]C(=O)C4)N(C)C(=O)CNC1=O [RB-0004819] (cyclo(G[NMehCys](DOTA(Lu)NH(CH2)6NHCOCH2)Y[dW]KT)) | < 1 nM
10 | C[C@@H](O)[C@@H]1NC(=O)[C@H](CCCCN)NC(=O)[C@@H](Cc2c[nH]c3ccccc23)NC(=O)[C@H](Cc2ccc(O)cc2)NC(=O)[C@H](CCSCC(=O)NCCCCCCNC(=O)CN2CCN3CCN4CCN(CC2)CC(=O)[O][Lu]([O]C(=O)C3)[O]C(=O)C4)N(C)C(=O)[C@H](c2ccccc2)NC1=O [RB-0004821] (cyclo(KT[Phg][NMehCys](DOTA(Lu)NH(CH2)6NHCOCH2)Y[dW])) | 1 to 3.33 nM
11 | CC(C)[C@@H]1NC(=O)[C@H](CCCCN)NC(=O)[C@@H](Cc2c[nH]c3ccccc23)NC(=O)[C@H](Cc2ccc(O)cc2)NC(=O)[C@H](CCSCC(=O)NCCOCCOCCOCCNC(=O)CN2CCN3CCN4CCN(CC2)CC(=O)[O][Lu]([O]C(=O)C3)[O]C(=O)C4)N(C)C(=O)[C@H](Cc2ccccc2)NC1=O [RB-0004823] (cyclo(F[NMehCys](X6)Y[dW]KV)) | < 1 nM
12 | CC(C)[C@@H]1NC(=O)[C@H](CCCCN)NC(=O)[C@@H]([C@@H](C)c2c[nH]c3ccccc23)NC(=O)[C@H](Cc2ccncc2)NC(=O)[C@H](CCSCC(=O)NCCCCCCNC(=O)CN2CCN3CCN4CCN(CC2)CC(=O)[O][Lu]([O]C(=O)C3)[O]C(=O)C4)N(C)C(=O)[C@H](Cc2ccccc2)NC1=O [RB-0004825] (cyclo([4Pal][dTrp(βS-Me)]KVF[NMehCys](DOTA(Lu)NH(CH2)6NHCOCH2))) | < 1 nM
13 | C[C@@H](O)[C@@H]1NC(=O)[C@H](CC2CCNCC2)NC(=O)[C@@H](Cc2c[nH]c3ccccc23)NC(=O)[C@H](Cc2ccc(O)cc2)NC(=O)[C@H](CCSCC(=O)NCCCCCCNC(=O)CN2CCN3CCN4CCN(CC2)CC(=O)[O][Lu]([O]C(=O)C3)[O]C(=O)C4)N(C)C(=O)[C@H](Cc2ccccc2)NC1=O [RB-0004864] (cyclo(F[NMehCys](DOTA(Lu)NH(CH2)6NHCOCH2)Y[dW][Ala(piperidin-4-yl)]T)) | 1 to 3.33 nM
14 | C[C@@H](O)[C@@H]1NC(=O)[C@H](CC2CNC2)NC(=O)[C@@H](Cc2c[nH]c3ccccc23)NC(=O)[C@H](Cc2ccc(O)cc2)NC(=O)[C@H](CCSCC(=O)NCCCCCCNC(=O)CN2CCN3CCN4CCN(CC2)CC(=O)[O][Lu]([O]C(=O)C3)[O]C(=O)C4)N(C)C(=O)[C@H](Cc2ccccc2)NC1=O [RB-0004866] (cyclo(F[NMehCys](DOTA(Lu)NH(CH2)6NHCOCH2)Y[dW][X25]T)) | 10 to 33.3 nM
15 | C[C@@H](O)[C@@H]1NC(=O)[C@H](C2CCNCC2)NC(=O)[C@@H](Cc2c[nH]c3ccccc23)NC(=O)[C@H](Cc2ccc(O)cc2)NC(=O)[C@H](CCSCC(=O)NCCCCCCNC(=O)CN2CCN3CCN4CCN(CC2)CC(=O)[O][Lu]([O]C(=O)C3)[O]C(=O)C4)N(C)C(=O)[C@H](Cc2ccccc2)NC1=O [RB-0004868] (cyclo(F[NMehCys](DOTA(Lu)NH(CH2)6NHCOCH2)Y[dW][Gly(piperidin-4-yl)]T)) | 3.33 to 10 nM
16 | CC(C)[C@@H]1NC(=O)[C@H](CCCCN)NC(=O)[C@@H](Cc2c[nH]c3ccccc23)NC(=O)[C@H](Cc2ccc(O)cc2)NC(=O)[C@H](CCSCC(=O)NCCCCCCNC(=O)CN2CCN3CCN4CCN(CC2)CC(=O)[O][Lu]([O]C(=O)C3)[O]C(=O)C4)N(C)C(=O)[C@H](C2CC2)NC1=O [RB-0005247] (cyclo([Gly(cPr)][NMehCys](DOTA(Lu)NH(CH2)6NHCOCH2)Y[dW]KV)) | 3.33 to 10 nM
17 | CC(C)[C@@H]1NC(=O)[C@H](CCCCN)NC(=O)[C@@H](Cc2c[nH]c3ccccc23)NC(=O)[C@H](Cc2ccc(O)cc2)NC(=O)[C@H](CCSCC(=O)NCCCCCCNC(=O)CN2CCN3CCN4CCN(CC2)CC(=O)[O][Lu]([O]C(=O)C3)[O]C(=O)C4)N(C)C(=O)[C@H](CC(N)=O)NC1=O [RB-0005253] (cyclo(KVN[NMehCys](DOTA(Lu)NH(CH2)6NHCOCH2)Y[dW])) | 3.33 to 10 nM
18 | CC(C)[C@@H]1NC(=O)[C@H](CCCCN)NC(=O)[C@@H](Cc2c[nH]c3ccccc23)NC(=O)[C@H](Cc2ccc(O)cc2)NC(=O)[C@H](CCSCC(=O)NCCCCCCNC(=O)CN2CCN3CCN4CCN(CC2)CC(=O)[O][Lu]([O]C(=O)C3)[O]C(=O)C4)N(C)C(=O)[C@H](Cc2cnc[nH]2)NC1=O [RB-0005255] (cyclo(H[NMehCys](DOTA(Lu)NH(CH2)6NHCOCH2)Y[dW]KV)) | 1 to 3.33 nM
19 | CC(C)[C@@H]1NC(=O)[C@H](CCCCN)NC(=O)[C@@H](Cc2c[nH]c3ccccc23)NC(=O)[C@H](Cc2ccc(O)cc2)NC(=O)[C@H](CCSCC(=O)NCCCCCCNC(=O)CN2CCN3CCN4CCN(CC2)CC(=O)[O][Lu]([O]C(=O)C3)[O]C(=O)C4)N(C)C(=O)[C@H](C)NC1=O [RB-0005266] (cyclo(A[NMehCys](DOTA(Lu)NH(CH2)6NHCOCH2)Y[dW]KV)) | < 1 nM
20 | CC(C)[C@@H]1NC(=O)[C@H](CCCCN)NC(=O)[C@@H](Cc2c[nH]c3ccccc23)NC(=O)[C@H](Cc2ccc(O)cc2)NC(=O)[C@H](CCSCC(=O)NCCCCCCNC(=O)CN2CCN3CCN4CCN(CC2)CC(=O)[O][Lu]([O]C(=O)C3)[O]C(=O)C4)N(C)C(=O)[C@H](CO)NC1=O [RB-0005270] (cyclo(KVS[NMehCys](DOTA(Lu)NH(CH2)6NHCOCH2)Y[dW])) | < 1 nM
21 | C[C@@H](O)[C@@H]1NC(=O)[C@H](CCCCN)NC(=O)[C@@H](Cc2c[nH]c3ccccc23)NC(=O)[C@H](Cc2ccc(O)cc2)NC(=O)[C@H](CCSCC(=O)NCCOCCOCCNC(=O)CN2CCN3CCN4CCN(CC2)CC(=O)[O][Lu]([O]C(=O)C3)[O]C(=O)C4)N(C)C(=O)[C@H](Cc2ccccc2)NC1=O [RB-0005272] | < 1 nM
22 | C[C@@H](O)[C@@H]1NC(=O)[C@H](CCCCN)NC(=O)[C@@H](Cc2c[nH]c3ccccc23)NC(=O)[C@H](Cc2ccc(O)cc2)NC(=O)[C@H](CCSCC(=O)NCCCCCCNC(=O)CCC(C(=O)O)N2CCN3CCN4CCN(CC2)CC(=O)[O][Lu]([O]C(=O)C4)[O]C(=O)C3)N(C)C(=O)[C@H](Cc2ccccc2)NC1=O (some centres unmarked) [RB-0005274] | < 1 nM
23 | C[C@@H](O)[C@@H]1NC(=O)[C@H](CCCCN)NC(=O)[C@@H](Cc2c[nH]c3ccccc23)NC(=O)[C@H](Cc2ccc(O)cc2)NC(=O)[C@H](CCSCC(=O)N[C@H](CCCCNC(=O)CN2CCN3CCN4CCN(CC2)CC(=O)[O][Lu]([O]C(=O)C3)[O]C(=O)C4)C(=O)O)N(C)C(=O)[C@H](Cc2ccccc2)NC1=O [RB-0005276] | 1 to 3.33 nM
